According to ChEMBL document CHEMBL4507268 (2021):

What was measured:
[1] = target: Cyclin-dependent kinase 4 (Homo sapiens) (UniProt P11802); details: Compound concentration 1000.0 nM
[2] = target: Cyclin-dependent kinase-like 3 (Homo sapiens) (UniProt Q8IVW4); details: Compound concentration 1000.0 nM
[3] = target: Dual specificity protein kinase CLK3 (Homo sapiens) (UniProt P49761); details: Compound concentration 1000.0 nM
[4] = target: Mitogen-activated protein kinase 3 (Homo sapiens) (UniProt P27361); details: Compound concentration 1000.0 nM
[5] = tested on: Receptor-type tyrosine-protein kinase FLT3 (Homo sapiens), P36888 [N841I]; details: Compound concentration 1000.0 nM
[6] = target: Mitogen-activated protein kinase 9 (Homo sapiens) (UniProt P45984); details: Compound concentration 1000.0 nM
[7] = tested on: Leucine-rich repeat serine/threonine-protein kinase 2 (Homo sapiens), Q5S007 [G2019S]; details: Compound concentration 1000.0 nM
[8] = target: Platelet-derived growth factor receptor beta (Homo sapiens) (UniProt P09619); details: Compound concentration 1000.0 nM
[9] = target: T1, Phosphatidylinositol 3-kinase C2 domain-containing subunit gamma (Homo sapiens) (UniProt O75747); details: Compound concentration 1000.0 nM
T1 sequence (whole entry): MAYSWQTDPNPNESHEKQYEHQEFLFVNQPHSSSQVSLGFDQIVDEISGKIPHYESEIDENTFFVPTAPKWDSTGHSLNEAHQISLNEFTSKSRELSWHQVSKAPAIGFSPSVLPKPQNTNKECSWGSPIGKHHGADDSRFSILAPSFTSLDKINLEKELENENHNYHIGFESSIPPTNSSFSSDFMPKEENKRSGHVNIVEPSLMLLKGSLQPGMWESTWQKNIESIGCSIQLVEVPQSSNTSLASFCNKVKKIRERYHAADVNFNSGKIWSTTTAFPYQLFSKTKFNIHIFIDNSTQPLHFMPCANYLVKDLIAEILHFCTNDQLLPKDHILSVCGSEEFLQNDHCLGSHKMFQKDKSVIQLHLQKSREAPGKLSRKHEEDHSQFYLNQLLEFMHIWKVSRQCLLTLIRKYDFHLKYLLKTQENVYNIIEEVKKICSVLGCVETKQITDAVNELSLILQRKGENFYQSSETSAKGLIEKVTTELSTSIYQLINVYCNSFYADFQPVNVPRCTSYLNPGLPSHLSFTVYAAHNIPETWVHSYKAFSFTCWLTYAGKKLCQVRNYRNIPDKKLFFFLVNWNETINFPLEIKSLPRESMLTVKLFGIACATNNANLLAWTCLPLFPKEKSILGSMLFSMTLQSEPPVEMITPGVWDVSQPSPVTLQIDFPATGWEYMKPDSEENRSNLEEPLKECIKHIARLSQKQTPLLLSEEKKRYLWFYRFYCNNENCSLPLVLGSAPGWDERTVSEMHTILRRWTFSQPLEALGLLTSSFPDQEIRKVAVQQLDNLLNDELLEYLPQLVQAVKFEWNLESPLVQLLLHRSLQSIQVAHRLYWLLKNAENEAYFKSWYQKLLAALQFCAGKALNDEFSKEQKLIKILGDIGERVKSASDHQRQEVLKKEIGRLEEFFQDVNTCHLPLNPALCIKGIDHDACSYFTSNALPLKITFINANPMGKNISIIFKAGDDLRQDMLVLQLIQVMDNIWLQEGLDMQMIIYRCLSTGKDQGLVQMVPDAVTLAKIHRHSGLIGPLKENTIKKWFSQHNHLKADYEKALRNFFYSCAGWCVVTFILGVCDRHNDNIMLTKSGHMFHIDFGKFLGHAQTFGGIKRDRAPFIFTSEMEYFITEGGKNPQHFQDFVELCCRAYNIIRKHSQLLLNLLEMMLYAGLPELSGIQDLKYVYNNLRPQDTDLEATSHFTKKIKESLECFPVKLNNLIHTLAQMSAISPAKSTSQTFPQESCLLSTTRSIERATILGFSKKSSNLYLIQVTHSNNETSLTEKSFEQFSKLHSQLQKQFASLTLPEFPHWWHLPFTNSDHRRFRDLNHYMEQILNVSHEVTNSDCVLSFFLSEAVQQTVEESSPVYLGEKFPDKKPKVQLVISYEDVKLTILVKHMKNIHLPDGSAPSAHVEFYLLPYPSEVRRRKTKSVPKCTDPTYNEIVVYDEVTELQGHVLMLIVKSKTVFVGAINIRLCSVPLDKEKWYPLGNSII

[10] = target: Phosphatidylinositol 5-phosphate 4-kinase type-2 beta (Homo sapiens) (UniProt P78356); details: Compound concentration 1000.0 nM
[11] = target: T2, Tyrosine-protein kinase Tec (Homo sapiens) (UniProt P42680); details: Compound concentration 1000.0 nM
T2 sequence (whole entry): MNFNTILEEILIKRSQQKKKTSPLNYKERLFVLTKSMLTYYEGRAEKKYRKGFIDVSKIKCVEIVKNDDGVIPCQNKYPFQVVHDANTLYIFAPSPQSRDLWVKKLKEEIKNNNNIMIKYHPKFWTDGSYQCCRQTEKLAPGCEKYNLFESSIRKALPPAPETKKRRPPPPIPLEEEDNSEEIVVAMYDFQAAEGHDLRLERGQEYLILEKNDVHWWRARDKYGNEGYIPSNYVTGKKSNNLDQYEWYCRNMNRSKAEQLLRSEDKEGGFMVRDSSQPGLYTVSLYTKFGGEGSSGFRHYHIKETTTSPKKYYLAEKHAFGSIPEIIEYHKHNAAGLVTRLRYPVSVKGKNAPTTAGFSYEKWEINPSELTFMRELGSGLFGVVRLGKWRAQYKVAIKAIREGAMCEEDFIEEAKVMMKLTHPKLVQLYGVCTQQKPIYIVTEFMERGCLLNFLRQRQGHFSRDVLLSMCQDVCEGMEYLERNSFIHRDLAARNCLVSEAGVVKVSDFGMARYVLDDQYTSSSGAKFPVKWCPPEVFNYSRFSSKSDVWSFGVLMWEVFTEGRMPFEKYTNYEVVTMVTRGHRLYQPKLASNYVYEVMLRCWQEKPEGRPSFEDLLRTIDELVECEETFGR

[12] = target: Alpha-1A adrenergic receptor (Homo sapiens) (UniProt P35348); details: Compound concentration 10.0 uM
Sequence of Alpha-1A adrenergic receptor (Homo sapiens) (P35348 whole entry): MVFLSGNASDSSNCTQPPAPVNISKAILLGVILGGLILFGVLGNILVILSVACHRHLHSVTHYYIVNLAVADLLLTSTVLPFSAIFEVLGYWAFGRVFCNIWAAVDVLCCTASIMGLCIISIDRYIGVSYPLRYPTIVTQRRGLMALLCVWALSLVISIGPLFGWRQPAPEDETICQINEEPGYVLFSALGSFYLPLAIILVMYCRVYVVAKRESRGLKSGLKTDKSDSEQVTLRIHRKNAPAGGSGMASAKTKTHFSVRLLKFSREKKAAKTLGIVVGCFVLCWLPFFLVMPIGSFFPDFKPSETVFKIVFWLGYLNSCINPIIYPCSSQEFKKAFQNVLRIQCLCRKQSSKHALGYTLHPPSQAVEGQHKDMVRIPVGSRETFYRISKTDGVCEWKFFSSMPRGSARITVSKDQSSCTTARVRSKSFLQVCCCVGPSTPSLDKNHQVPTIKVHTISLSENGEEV

Sequence of Mitogen-activated protein kinase 9 (Homo sapiens) (P45984 whole entry, looked up): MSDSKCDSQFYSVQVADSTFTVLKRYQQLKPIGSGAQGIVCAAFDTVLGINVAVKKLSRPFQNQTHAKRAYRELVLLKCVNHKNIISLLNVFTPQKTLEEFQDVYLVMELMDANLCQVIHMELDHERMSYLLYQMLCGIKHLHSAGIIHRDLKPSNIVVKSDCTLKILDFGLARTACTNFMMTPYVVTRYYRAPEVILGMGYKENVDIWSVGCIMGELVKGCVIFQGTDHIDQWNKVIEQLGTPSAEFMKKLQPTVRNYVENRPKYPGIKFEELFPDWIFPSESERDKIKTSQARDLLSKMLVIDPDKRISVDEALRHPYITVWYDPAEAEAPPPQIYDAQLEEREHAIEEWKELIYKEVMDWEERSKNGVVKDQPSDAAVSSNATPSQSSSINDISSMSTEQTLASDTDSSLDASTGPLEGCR
Sequence of Cyclin-dependent kinase-like 3 (Homo sapiens) (Q8IVW4 whole entry, looked up): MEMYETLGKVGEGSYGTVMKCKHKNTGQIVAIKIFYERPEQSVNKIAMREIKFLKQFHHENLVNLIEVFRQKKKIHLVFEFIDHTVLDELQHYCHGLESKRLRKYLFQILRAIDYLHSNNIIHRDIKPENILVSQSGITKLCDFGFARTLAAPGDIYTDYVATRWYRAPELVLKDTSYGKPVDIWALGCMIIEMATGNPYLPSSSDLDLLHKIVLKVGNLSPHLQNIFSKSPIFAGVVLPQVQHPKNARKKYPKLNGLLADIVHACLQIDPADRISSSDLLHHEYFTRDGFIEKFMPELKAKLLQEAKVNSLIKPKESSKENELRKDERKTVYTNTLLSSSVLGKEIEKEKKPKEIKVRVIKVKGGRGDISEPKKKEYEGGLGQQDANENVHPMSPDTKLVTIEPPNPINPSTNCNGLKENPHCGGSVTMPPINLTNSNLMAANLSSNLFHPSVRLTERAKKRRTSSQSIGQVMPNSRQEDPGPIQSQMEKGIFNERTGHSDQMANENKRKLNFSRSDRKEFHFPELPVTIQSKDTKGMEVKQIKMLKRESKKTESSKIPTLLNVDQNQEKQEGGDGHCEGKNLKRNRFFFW
Sequence of Mitogen-activated protein kinase 3 (Homo sapiens) (P27361 whole entry): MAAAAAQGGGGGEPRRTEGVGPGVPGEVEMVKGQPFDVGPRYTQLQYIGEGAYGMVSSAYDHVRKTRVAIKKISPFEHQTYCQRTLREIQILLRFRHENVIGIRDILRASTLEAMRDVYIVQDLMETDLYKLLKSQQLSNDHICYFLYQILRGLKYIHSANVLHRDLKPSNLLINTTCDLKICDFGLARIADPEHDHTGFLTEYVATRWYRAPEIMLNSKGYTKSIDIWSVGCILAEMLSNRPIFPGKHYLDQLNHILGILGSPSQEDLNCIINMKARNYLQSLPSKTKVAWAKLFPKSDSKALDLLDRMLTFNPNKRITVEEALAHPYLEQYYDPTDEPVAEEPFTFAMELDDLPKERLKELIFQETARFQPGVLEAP
Sequence of Phosphatidylinositol 5-phosphate 4-kinase type-2 beta (Homo sapiens) (P78356 whole entry): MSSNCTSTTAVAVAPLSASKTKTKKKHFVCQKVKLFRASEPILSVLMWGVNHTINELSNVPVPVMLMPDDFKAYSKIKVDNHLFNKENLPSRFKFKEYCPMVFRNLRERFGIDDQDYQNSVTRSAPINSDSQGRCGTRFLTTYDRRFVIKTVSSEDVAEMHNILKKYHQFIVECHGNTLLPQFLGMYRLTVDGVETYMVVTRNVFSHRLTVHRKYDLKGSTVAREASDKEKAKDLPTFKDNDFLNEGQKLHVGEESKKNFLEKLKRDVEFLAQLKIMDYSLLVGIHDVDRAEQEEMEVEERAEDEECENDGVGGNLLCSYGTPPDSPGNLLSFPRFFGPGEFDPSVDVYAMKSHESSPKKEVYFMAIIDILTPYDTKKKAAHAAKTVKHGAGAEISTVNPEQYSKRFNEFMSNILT
Sequence of Dual specificity protein kinase CLK3 (Homo sapiens) (P49761 whole entry, looked up): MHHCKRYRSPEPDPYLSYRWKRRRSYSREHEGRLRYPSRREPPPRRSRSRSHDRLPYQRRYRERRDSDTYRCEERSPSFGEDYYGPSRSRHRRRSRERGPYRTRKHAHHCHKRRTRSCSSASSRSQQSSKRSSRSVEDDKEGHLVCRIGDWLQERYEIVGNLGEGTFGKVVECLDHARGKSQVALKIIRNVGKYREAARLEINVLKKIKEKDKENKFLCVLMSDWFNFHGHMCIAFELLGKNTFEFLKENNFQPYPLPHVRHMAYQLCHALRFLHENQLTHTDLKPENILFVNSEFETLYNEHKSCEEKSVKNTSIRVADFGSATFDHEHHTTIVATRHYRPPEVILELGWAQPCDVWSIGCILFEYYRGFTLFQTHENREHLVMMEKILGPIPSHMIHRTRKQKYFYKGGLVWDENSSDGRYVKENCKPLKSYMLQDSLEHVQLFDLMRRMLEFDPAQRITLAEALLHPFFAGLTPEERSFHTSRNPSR
Sequence of Cyclin-dependent kinase 4 (Homo sapiens) (P11802 whole entry): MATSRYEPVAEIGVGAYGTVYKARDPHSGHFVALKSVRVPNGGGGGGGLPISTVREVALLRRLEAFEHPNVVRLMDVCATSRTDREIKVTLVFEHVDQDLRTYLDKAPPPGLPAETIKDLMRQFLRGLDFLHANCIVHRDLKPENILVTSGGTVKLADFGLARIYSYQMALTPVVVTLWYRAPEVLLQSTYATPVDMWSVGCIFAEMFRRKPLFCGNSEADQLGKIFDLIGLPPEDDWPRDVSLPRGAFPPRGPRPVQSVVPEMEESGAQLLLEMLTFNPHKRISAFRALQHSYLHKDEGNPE
Sequence of Platelet-derived growth factor receptor beta (Homo sapiens) (P09619 whole entry, the tested form may be a part): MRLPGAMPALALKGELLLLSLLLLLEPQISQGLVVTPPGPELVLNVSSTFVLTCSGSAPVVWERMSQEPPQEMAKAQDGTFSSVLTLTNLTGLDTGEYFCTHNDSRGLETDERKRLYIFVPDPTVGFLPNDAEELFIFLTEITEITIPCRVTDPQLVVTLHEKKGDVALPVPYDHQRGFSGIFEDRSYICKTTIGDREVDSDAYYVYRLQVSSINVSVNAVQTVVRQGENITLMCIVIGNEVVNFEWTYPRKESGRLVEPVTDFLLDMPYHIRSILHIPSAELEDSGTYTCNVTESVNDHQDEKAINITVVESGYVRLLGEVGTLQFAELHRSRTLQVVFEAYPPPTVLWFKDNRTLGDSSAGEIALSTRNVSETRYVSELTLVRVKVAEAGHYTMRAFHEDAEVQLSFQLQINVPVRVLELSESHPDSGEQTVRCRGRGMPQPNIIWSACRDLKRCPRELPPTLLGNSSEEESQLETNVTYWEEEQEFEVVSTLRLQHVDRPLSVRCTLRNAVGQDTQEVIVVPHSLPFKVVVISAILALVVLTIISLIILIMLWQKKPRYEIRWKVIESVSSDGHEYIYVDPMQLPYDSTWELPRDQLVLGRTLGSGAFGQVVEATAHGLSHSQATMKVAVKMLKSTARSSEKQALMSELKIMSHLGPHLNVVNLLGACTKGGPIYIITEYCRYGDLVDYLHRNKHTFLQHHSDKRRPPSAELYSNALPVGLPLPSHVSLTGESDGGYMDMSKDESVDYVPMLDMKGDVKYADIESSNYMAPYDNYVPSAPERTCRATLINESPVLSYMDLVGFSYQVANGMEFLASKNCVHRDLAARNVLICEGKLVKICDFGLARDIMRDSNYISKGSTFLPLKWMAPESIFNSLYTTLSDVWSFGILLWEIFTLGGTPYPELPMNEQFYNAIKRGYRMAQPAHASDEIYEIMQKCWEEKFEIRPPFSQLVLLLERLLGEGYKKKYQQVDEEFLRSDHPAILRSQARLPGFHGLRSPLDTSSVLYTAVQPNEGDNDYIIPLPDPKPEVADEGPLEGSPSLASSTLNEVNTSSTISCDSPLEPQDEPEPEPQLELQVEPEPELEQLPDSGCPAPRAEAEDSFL

Cc1nc(C2CCN(C(=O)c3ccc(OC(F)(F)F)cc3N)CC2)c2ncc(N3CCN(C)CC3)cc2n1 [BAY-693]
inactive: residual activity [1] 99% | residual activity [2] 92% | residual activity [3] 94% | residual activity [4] 98% | residual activity [5] 100% | residual activity [6] 100% | residual activity [7] 100% | residual activity [8] 95% | residual activity [9] 100% | residual activity [10] 78% | residual activity [11] 96% | inhibition [12] -9.85%

CN1CCN(c2cnc3c(C4CCN(C(=O)c5ccc(OC(F)(F)F)cc5N)CC4)ncnc3c2)CC1 [BAY-885]
inactive: residual activity [1] 98% | residual activity [2] 92% | residual activity [3] 100% | residual activity [4] 100% | residual activity [5] 100% | residual activity [6] 100% | residual activity [7] 100% | residual activity [8] 95% | residual activity [9] 100% | residual activity [10] 79% | residual activity [11] 100% | inhibition [12] 1.11%
